Measured values: publication PMC11374660, “The novel family of Warbicin® compounds inhibits glucose uptake both in yeast and human cells and restrains cancer cell proliferation” (Frontiers in Oncology, 2024)

Tests used:
[1] = tested on: A549 lung adenocarcinoma cells; test: Proliferation of A549 lung adenocarcinoma cells; format: cell-based, human; settings: for Selected from primary screen for growth inhibition of A549 cells at 50 µM: RPMI 1 mM glucose; for Selected for having an IC50 ratio (10 mM glucose : 1 mM glucose) of A549 growth higher than WBC-A: ratio of IC50 on 10 mM and 1 mM glucose, compared to WBC-A
Method: For both adherent A549 and MCF10A H-RAS^V12 cell lines, growth curves were established using the IncuCyte® ZOOM technology. By collecting phase contrast images, the IncuCyte® software provides a calculated confluency percentage from which growth curves can be deducted. The cell number/density was measured by calculating the confluency of phase objects (cells) sticking on the bottom of the well. Cells were seeded at a density of 1000 - 1500 cells/well in a Nunc-Edge™ 96-well plate (Thermo Fisher Scientific) and growth was typically measured over 3 to 5 days. For the measurement of apoptosis induction using the MCF10A H-RAS^V12 cell line, the IncuCyte® Caspase-3/7 green dye was added to the medium in the recommended concentration at the beginning of the growth curve experiment. Apoptosis was detected by taking fluorescent images by excitation at 488 nm followed by IncuCyte® software analysis. Cell growth of the KMS-12-PE multiple myeloma cell line, which grows in suspension, was measured by manual cell counting. Cells were initially seeded at a density of 10^4 cells/well and incubated for 4 days after which the cell number was counted. For all cell lines, the same medium used for pregrowth was also used for the growth curve experiment, albeit with different glucose concentrations depending on the experimental design. With compound administration, the final concentration of DMSO never exceeded 0.1%. Typically, at least four technical repeats were included per condition.

[2] = tested on: yeast tps1Δ strain; test: Growth (rescue) of the yeast tps1Δ strain on galactose with or without glucose; format: cell-based, S. cerevisiae; settings: 2.5 mM glucose
Method: Growth curves were made by measuring OD595 in a 96-well plate using the Multiskan™ FC Microplate Photometer (Thermo Fisher Scientific). Typically, for tps1Δ rescue experiments, cells were (pre)grown in Complete Synthetic medium containing 110 mM galactose. Compounds were always added 10 min prior to glucose addition to ensure maximal interaction between the cells and compounds. Cells originating from the preculture were harvested, washed in medium without sugar, after which they were resuspended to an OD of 0.1 in 200 µL of the appropriate medium. At least three technical replicates were included per condition. OD595 was measured at 30°C every 30 min with a 10-min shaking interval.

[3] = tested on: glucose uptake by tps1Δ yeast cells; test: Zero-trans uptake of radioactive glucose in tps1Δ yeast cells; format: cell-based, S. cerevisiae; settings: tps1∆ cells, 2.5 mM glucose; read-out: IC50 values for 2.5 mM glucose uptake in tps1∆ cells
Method: (§1) Zero-trans uptake of radioactively labeled [U-^14C]glucose, [U-^14C]fructose or [U-^14C]galactose by S. cerevisiae cells was determined in accordance with previous studies ([45], [75]). Cells were grown on different carbon sources depending on the experiment. For measuring glucose uptake activity in the tps1Δ and tps1Δ hxtΔ strains, cells were grown on YP medium containing 325 mM glycerol (measurement of 10 s). Typically, for compound characterization and kinetic studies in wild type and tps1Δ strains, cells were (pre)grown on Complete Synthetic medium supplemented with 110 mM galactose (measurement of 10 s). In the experiments on the influence of hexokinase activity on the sugar uptake rate, the measurement duration was shortened to 5 s and cells were always grown on YP medium containing 325 mM glycerol and 430 mM ethanol. After harvesting, cells were washed twice with ice-cold 25 mM MES-buffer pH 6, and resuspended in their respective medium without sugar to a final concentration of 45 mg (wet weight)/mL. The amount of added tracer was estimated to give a response close to at least 1000 counts per min in order to adequately counter background noise. Cells were first preincubated for 10 min at 30°C with the compound to acclimate the cells to the temperature and to allow adequate interaction with the compound prior to uptake. Next, hexose sugar was mixed with the cell suspension, which was then incubated at 30°C for 5 or 10 s, depending on the experiment, after which the cells were rapidly filtered over a glass microfiber filter (Whatman GF/C) and washed three times with ice-cold dH2O. The loaded filter was transferred to a scintillation vial containing 3 mL liquid scintillation cocktail (Ultima-Flo M, Perkin Elmer) and counted using the Hidex 300 SL. Three blank measurements per strain were typically included to account for background signal, for which the cells were first quenched before adding the radioactive label.

[4] = tested on: hxk2Δ hxk1Δ GLK1 yeast cells; test: Sugar uptake in hxk2Δ hxk1Δ GLK1 yeast cells; format: cell-based, S. cerevisiae; settings: 250 µM CCCP or 50 µM WBC-A 10 min prior; 100 mM maltose with the tracer
Method: as §1

[5] = tested on: glucose uptake by wild type yeast cells; test: Zero-trans uptake of radioactive glucose in wild type yeast cells; format: cell-based, S. cerevisiae
Method: as §1

Row | SMILES | Selected from primary screen for growth inhibition of A549 cells at 50 µM ([1]; 50 µM) | Rescue of the tps1∆ strain on 2.5 mM glucose at 100 µM [2] | Minimal rescue concentration for growth of tps1∆ cells on 2.5 mM glucose [2] [µM] | IC50 [3] [µM] | Selected for having an IC50 ratio (10 mM glucose : 1 mM glucose) of A549 growth higher than WBC-A [1] | fructose uptake at tracer concentration [4] | glucose uptake at tracer concentration [4] | inhibition of A549 cell proliferation in prescreening ([1]; 50 µM, 1 mM glucose, three days) | type of inhibition of glucose uptake (Lineweaver-Burk) [5] | IC50 ([5]; radioactive glucose, 10 s, read-out: IC50 for inhibition of 2.5 mM glucose uptake) [nM] | Ki ([5]; read-out: Ki (Dixon plot) for glucose uptake) [nM]
1 | CCn1c(Sc2nc(C)nc3scc(-c4cccs4)c23)nnc1-c1ccncc1 [WBC-43C] | Yes | Yes | 12.5 | 8.93 | – | – | – | – | – | – | –
2 | CC(=O)NCc1ccc(C(=O)CSc2nc(C)nc3scc(-c4cccs4)c23)o1 [WBC-29B] | No | Yes | 6.25 | 9.23 | – | – | – | – | – | – | –
3 | Cc1nc(SCCN2CCOCC2)c2c(-c3cccs3)csc2n1 [WBC-44A] | Yes | Yes | 50 | 61.8 | Lower IC50 ratio | – | – | – | – | – | –
4 | Cc1nc(SCCN2CCOC2=O)c2c(-c3cccs3)csc2n1 [WBC-26C] | No | Yes | 25 | 23.8 | – | – | – | – | – | – | –
5 | Cc1nc(SCC(=O)Nc2cc(C)on2)c2c(-c3cccs3)csc2n1 [WBC-10C] | Yes | Yes | 6.25 | 24.8 | Lower IC50 ratio | – | – | – | – | – | –
6 | COCCCNC(=O)CSc1nc(C)nc2scc(-c3cccs3)c12 [WBC-15B] | No | Yes | 25 | 32.7 | – | – | – | – | – | – | –
7 | CCn1c(CCC(N)=O)nnc1Sc1nc(C)nc2scc(-c3cccs3)c12 [WBC-16C] | Yes | Yes | 50 | 49.6 | Lower IC50 ratio | – | – | – | – | – | –
8 | Cc1nc(SCC(=O)NC(C)(C)C)c2c(-c3cccs3)csc2n1 [WBC-32B] | Yes | Yes | 12.5 | 30.3 | Lower IC50 ratio | – | – | – | – | – | –
9 | Cc1nc(SCC(=O)NC(N)=O)c2c(-c3cccs3)csc2n1 [WBC-6B] | Yes | Yes | 12.5 | 10.2 | Lower IC50 ratio | – | – | – | – | – | –
10 | N#CC(C#N)=NNc1cccc(Cl)c1 [CCCP, reference compound] | – | – | – | – | – | not that of fructose | lowered the glucose uptake rate | – | – | – | –
11 | C=C1[C@@H](C)[C@H]2[C@H](Cc3ccccc3)NC(=O)[C@]23OC(=O)/C=C/[C@H](O)CCC[C@@H](C)C/C=C/[C@H]3[C@@H]1O [Cytochalasin B, reference compound] | – | – | – | – | – | – | – | the strongest inhibitor of cell proliferation in this assay | – | – | –
12 | Cc1nc(Sc2nnc(-c3ccncc3)n2C)c2c(-c3cccs3)csc2n1 [WBC-26A] | Yes | Yes | 25 | 5.35 | Lower IC50 ratio | – | – | – | – | – | –
13 | Cc1nc(SCCO)c2c(-c3cccs3)csc2n1 [WBC-47A] | Yes | Yes | 6.25 | 15.6 | Lower IC50 ratio | – | – | – | – | – | –
14 | Cc1nc(Sc2nnc3n2CCC(CN=[N+]=[N-])CC3)c2c(-c3cccs3)csc2n1 (centres unmarked) [WBC-87C] | Yes | Yes | 12.5 | 11.1 | Lower IC50 ratio | – | – | – | – | – | –
15 | Cc1nc(SCC(N)=O)c2c(-c3cccs3)csc2n1 [WBC-14A] | No | Yes | 25 | 27.9 | – | – | – | – | – | – | –
16 | Cc1nc(Sc2nnc(C(F)(F)F)n2C)c2c(-c3cccs3)csc2n1 [WBC-54C] | Yes | Yes | 50 | 64.7 | Lower IC50 ratio | – | – | – | – | – | –
17 | Cc1nc(SCC(=O)N(C)CCC#N)c2c(-c3cccs3)csc2n1 [WBC-7B] | No | Yes | 6.25 | 5.41 | – | – | – | – | – | – | –
18 | Cc1nc(Sc2nnc(-c3cccnc3)n2C)c2c(-c3cccs3)csc2n1 [WBC-23A] | Yes | Yes | 25 | 8.6 | Lower IC50 ratio | – | – | – | – | – | –
19 | CCCc1nnc(Sc2nc(C)nc3scc(-c4cccs4)c23)[nH]1 [WBC-50C] | Yes | Yes | 50 | 67.8 | Lower IC50 ratio | – | – | – | – | – | –
20 | Cc1nc(SCC(=O)N2CC(C)OC(C)C2)c2c(-c3cccs3)csc2n1 (centres unmarked) [WBC-5B] | No | Yes | 12.5 | 22.5 | – | – | – | – | – | – | –
21 | CCN(C(=O)CSc1nc(C)nc2scc(-c3cccs3)c12)C1CCS(=O)(=O)C1 (centres unmarked) [WBC-2C] | Yes | Yes | 1.562 | 2 | Lower IC50 ratio | – | – | – | mixed type of inhibition | 1980 | 1450
22 | COC(=O)CSc1nc(C)nc2scc(-c3cccs3)c12 [WBC-53A] | No | Yes | 12.5 | 26.8 | – | – | – | – | – | – | –
